Test results taken from US6706740B2, “Fungicidal heterocyclic aromatic amides and their compositions, methods of use and preparation” (Dow AgroSciences LLC, priority 1999, dated 2004).

System: Magnaporthe grisea (Pyricularia oryzae—PYRIOR)
Experiment: microbe, parasite or virus in culture
Assay type: cell-based
Conditions: Pyricularia oryzae, read-out: PYRIOR in vitro Growth Inhibition
For `O=C(NCc1ccc(Cl)cc1)c1ncccc1O` [Compound 220], the inhibition at 25 ppm was > 80%.
For `CC(C)C(=O)OC1CCC(NC(=O)c2ncccc2O)CC1` (stereo not drawn) [Compound 210], the inhibition at 25 ppm was < 80%.
For `COc1ccnc(C(=O)NC2CCN(Cc3ccccc3)CC2)c1O.O=C(O)/C=C\C(=O)O` [Compound 305], the inhibition at 25 ppm was < 80%.

System: Rhizoctonia solani (RHIZSO)
Experiment: microbe, parasite or virus in culture
Assay type: cell-based
Conditions: Rhizoctonia solani, read-out: RHIZSO in vitro Growth Inhibition
With `O=C(NCc1ccc(Cl)cc1)c1ncccc1O` [Compound 220] the inhibition at 25 ppm was > 80%.
In the case of `CC(C)C(=O)OC1CCC(NC(=O)c2ncccc2O)CC1` (stereo not drawn) [Compound 210], the inhibition at 25 ppm was < 80%.
With `COc1ccnc(C(=O)NC2CCN(Cc3ccccc3)CC2)c1O.O=C(O)/C=C\C(=O)O` [Compound 305] the inhibition at 25 ppm was < 80%.

System: Mycosphaerella graminicola (Septoria tritici—SEPTTR)
Experiment: In vitro fungal growth inhibition, Mycosphaerella graminicola (SEPTTR)
Assay type: cell-based
Conditions: Zymoseptoria tritici, read-out: SEPTTR in vitro Growth Inhibition
For `COc1ccnc(C(=O)NC2CCN(Cc3ccccc3)CC2)c1O.O=C(O)/C=C\C(=O)O` [Compound 305], the inhibition at 25 ppm was < 80%.

Same assay, conditions: Zymoseptoria tritici; 25 ppm in growth medium; read-out: SEPTTR in vitro Growth Inhibition
For `O=C(NCc1ccc(Cl)cc1)c1ncccc1O` [Compound 220], the inhibition at 25 ppm was > 80%.
In the case of `CC(C)C(=O)OC1CCC(NC(=O)c2ncccc2O)CC1` (stereo not drawn) [Compound 210], the inhibition at 25 ppm was < 80%.

System: Stagonospora nodorum (Leptosphaeria nodorum—LEPTNO)
Experiment: In vitro fungal growth inhibition, Stagonospora nodorum (LEPTNO)
Assay type: cell-based
Conditions: Leptosphaeria, read-out: LEPTNO in vitro Growth Inhibition
With `COc1ccnc(C(=O)NC2CCN(Cc3ccccc3)CC2)c1O.O=C(O)/C=C\C(=O)O` [Compound 305] the inhibition at 25 ppm was < 80%.

Same assay, conditions: Leptosphaeria; 25 ppm in growth medium; read-out: LEPTNO in vitro Growth Inhibition
For `O=C(NCc1ccc(Cl)cc1)c1ncccc1O` [Compound 220], the inhibition at 25 ppm was > 80%.
In the case of `CC(C)C(=O)OC1CCC(NC(=O)c2ncccc2O)CC1` (stereo not drawn) [Compound 210], the inhibition at 25 ppm was < 80%.

System: Ustilago maydis (USTIMA)
Experiment: microbe, parasite or virus in culture
Assay type: cell-based
Conditions: Mycosarcoma maydis, read-out: USTIMA in vitro Growth Inhibition
In the case of `O=C(NCc1ccc(Cl)cc1)c1ncccc1O` [Compound 220], the inhibition at 25 ppm was > 80%.
With `CC(C)C(=O)OC1CCC(NC(=O)c2ncccc2O)CC1` (stereo not drawn) [Compound 210] the inhibition at 25 ppm was < 80%.
For `COc1ccnc(C(=O)NC2CCN(Cc3ccccc3)CC2)c1O.O=C(O)/C=C\C(=O)O` [Compound 305], the inhibition at 25 ppm was < 80%.

System: Phytophthora infestans (PHYTIN)
Experiment: microbe, parasite or virus in culture
Assay type: cell-based
Conditions: Phytophthora infestans, read-out: PHYTIN in vitro Growth Inhibition
With `O=C(NCc1ccc(Cl)cc1)c1ncccc1O` [Compound 220] the inhibition at 25 ppm was > 80%.
With `CC(C)C(=O)OC1CCC(NC(=O)c2ncccc2O)CC1` (stereo not drawn) [Compound 210] the inhibition at 25 ppm was < 80%.
In the case of `COc1ccnc(C(=O)NC2CCN(Cc3ccccc3)CC2)c1O.O=C(O)/C=C\C(=O)O` [Compound 305], the inhibition at 25 ppm was < 80%.

System: Phytophthora infestans—PHYTIN
Experiment: whole plant or invertebrate
Assay type: in vivo
Conditions: 100 ppm spray, 24 hour protectant, tomato; control of fungal infection vs untreated plants
For `COc1ccnc(C(=O)NC2CCN(Cc3ccccc3)CC2)c1O.O=C(O)/C=C\C(=O)O` [Compound 305], the “PHYTIN in vivo 1 Day Protectant” value was “+ +”.

Same assay, conditions: Phytophthora, in Solanum lycopersicum, 24 h, read-out: PHYTIN in vivo 1 Day Protectant
With `O=C(NCc1ccc(Cl)cc1)c1ncccc1O` [Compound 220] the pest or weed control at 100 ppm was 25 to 74%.
For `CC(C)C(=O)OC1CCC(NC(=O)c2ncccc2O)CC1` (stereo not drawn) [Compound 210], the pest or weed control at 100 ppm was < 25%.

System: Puccinia recondita—PUCCRT
Experiment: Brown Rust of Wheat, in vivo whole plant, 24 Hour Protectant
Conditions: Puccinia, 24 h, read-out: PUCCRT in vivo 1 Day Protectant
For `COc1ccnc(C(=O)NC2CCN(Cc3ccccc3)CC2)c1O.O=C(O)/C=C\C(=O)O` [Compound 305], the pest or weed control at 100 ppm was < 25%.

Same assay, conditions: Puccinia; 100 ppm spray, 24 hour protectant, wheat; control of fungal infection vs untreated plants; read-out: PUCCRT in vivo 1 Day Protectant
With `O=C(NCc1ccc(Cl)cc1)c1ncccc1O` [Compound 220] the pest or weed control at 100 ppm was < 25%.
In the case of `CC(C)C(=O)OC1CCC(NC(=O)c2ncccc2O)CC1` (stereo not drawn) [Compound 210], the pest or weed control at 100 ppm was < 25%.

System: Erysiphe graminis—ERYSGT
Experiment: Powdery Mildew of Wheat, in vivo whole plant, 24 Hour Protectant
Conditions: Erysiphe, 24 h, read-out: ERYSGT in vivo 1 Day Protectant
With `COc1ccnc(C(=O)NC2CCN(Cc3ccccc3)CC2)c1O.O=C(O)/C=C\C(=O)O` [Compound 305] the pest or weed control at 100 ppm was < 25%.

Same assay, conditions: Erysiphe; 100 ppm spray, 24 hour protectant, wheat; control of fungal infection vs untreated plants; read-out: ERYSGT in vivo 1 Day Protectant
With `O=C(NCc1ccc(Cl)cc1)c1ncccc1O` [Compound 220] the pest or weed control at 100 ppm was < 25%.
For `CC(C)C(=O)OC1CCC(NC(=O)c2ncccc2O)CC1` (stereo not drawn) [Compound 210], the pest or weed control at 100 ppm was < 25%.

System: Septoria tritici—SEPTTR
Experiment: Leaf Blotch of Wheat, in vivo whole plant, 24 Hour Protectant
Conditions: Zymoseptoria tritici, 24 h, 100 ppm spray, 24 hour protectant, wheat; control of fungal infection vs untreated plants; read-out: SEPTTR in vivo 1 Day Protectant
In the case of `O=C(NCc1ccc(Cl)cc1)c1ncccc1O` [Compound 220], the pest or weed control at 100 ppm was < 25%.
For `CC(C)C(=O)OC1CCC(NC(=O)c2ncccc2O)CC1` (stereo not drawn) [Compound 210], the pest or weed control at 100 ppm was 25 to 74%.

Same assay, conditions: Zymoseptoria tritici, 24 h, read-out: SEPTTR in vivo 1 Day Protectant
For `COc1ccnc(C(=O)NC2CCN(Cc3ccccc3)CC2)c1O.O=C(O)/C=C\C(=O)O` [Compound 305], the pest or weed control at 100 ppm was < 25%.

System: Leptosphaeria nodorum—LEPTNO
Experiment: Glume Blotch of Wheat, in vivo whole plant, 24 Hour Protectant
Conditions: Leptosphaeria, 24 h, read-out: LEPTNO in vivo 1 Day Protectant
For `COc1ccnc(C(=O)NC2CCN(Cc3ccccc3)CC2)c1O.O=C(O)/C=C\C(=O)O` [Compound 305], the pest or weed control at 100 ppm was < 25%.

Same assay, conditions: Leptosphaeria; 100 ppm spray, 24 hour protectant, wheat; control of fungal infection vs untreated plants; read-out: LEPTNO in vivo 1 Day Protectant
In the case of `O=C(NCc1ccc(Cl)cc1)c1ncccc1O` [Compound 220], the pest or weed control at 100 ppm was < 25%.
In the case of `CC(C)C(=O)OC1CCC(NC(=O)c2ncccc2O)CC1` (stereo not drawn) [Compound 210], the pest or weed control at 100 ppm was < 25%.

System: not given
Experiment: not given
Conditions: not given
In the case of `O=C(NCc1ccc(Cl)cc1)c1ncccc1O` [Compound 220], the melting point was 95 to 97 °C.
Work on `CC(C)C(=O)OC1CCC(NC(=O)c2ncccc2O)CC1` (stereo not drawn) [Compound 210] yielded a melting point of 139 to 142 °C.
Work on `COc1ccnc(C(=O)NC2CCN(Cc3ccccc3)CC2)c1O.O=C(O)/C=C\C(=O)O` [Compound 305] yielded a melting point of 145 to 147 °C.
